Experimental data taken from patent US9663545B2, “Organometallic 2-cyano-2-aminobenzoate-propyl derivates and their use as anthelmintics” (UNIVERSITÄT ZÜRICH, priority 2013, dated 2017).

Assay: stability in sheep plasma (LC-MS)
Settings: 37° C., different time intervals, diazepam internal standard, new peak of the hydrolysed product arises
Experimental: Compound 8a and diazepam (internal standard) were incubated at 37° C. for different time intervals and their stability was checked using an LC-MS technique.

With “2-cyano-2-(4-((trifluoromethyl)thio)benzamido)propyl ferrocenoate [Compound 8a]” as the substance, how does the “stability in sheep plasma (LC-MS peak of the compound)” value read?
Its value is “decreasing within 24 hours”.
